Counter-ions that a name gives are not always drawn.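 All cell lines were grown in 96-well plates and treated with compound for 48 hours. GI50 is the concentration that inhibits growth by half.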 Active and inactive are the calls of the source. Cut-off read from the data, not from the text of the source: active = GI50 up to about 1.1 µM and inactive = higher.

Test systems include LOX IMVI; A498; SK-MEL-5; RPMI-8226; SF-268; NCI-H226; NCI-H522; MCF7; RXF 393; HOP-62; U-251; IGROV-1; SW-620; K562; ACHN; Malme-3M; CCRF-CEM; T47D; SN12C; PC-3.
Test in all cases: growth of human tumour cells (NCI), 48 h

On to `COc1ccc2c3c1OC1C(OC)(OC)C=C[C@@]4(Br)[C@@H](C2)N(CC2CC2)CC[C@]314` (some centres not stated), for which the GI50 was 87.9 µM (inactive) in the assay on LOX IMVI; > 100 µM (inactive) with A498; 37.6 µM (inactive) in the assay on SK-MEL-5; > 100 µM (inactive) with RPMI-8226; 32.1 µM (inactive) with SF-268; 58.5 µM (inactive) with NCI-H226. For the same compound, the GI50 in the assay with NCI-H522 was 21 µM (inactive); with MCF7 it was 52.1 µM (inactive); in the assay with RXF 393, 76.4 µM (inactive); in the assay with HOP-62 it was > 100 µM (inactive); in the assay on U-251 it was > 100 µM (inactive); with IGROV-1, 62.2 µM (inactive). Also, the GI50 in the assay with SW-620 was 33.7 µM (inactive); in the assay on K562 it was 52.8 µM (inactive); in the assay with ACHN it was > 100 µM (inactive); with Malme-3M it was 37.1 µM (inactive); in the assay with CCRF-CEM, 86.9 µM (inactive); in the assay with T47D, 97.9 µM (inactive). Also, the values for the GI50 with SN12C and in the assay with PC-3 were > 100 µM (inactive) and 99.1 µM (inactive), respectively.

As to `O=C1c2c(O)cccc2-c2nn(CCNCCO)c3ccc(NCCNCCO)c1c23` [LOSOXANTRONE HYDROCHLORIDE], the GI50 in the assay with LOX IMVI is 0.0667 µM (active); in the assay on A498, < 0.0113 µM (active); in the assay with SK-MEL-5 it was 0.0955 µM (active); with RPMI-8226, 0.432 µM (active); in the assay with SF-268 it was 0.0316 µM (active); in the assay on NCI-H226 it was < 0.0171 µM (active). For the same compound, the GI50 with NCI-H522 is 0.0228 µM (active); in the assay on MCF7, < 0.01 µM (active); with RXF 393, 0.188 µM (active); in the assay with HOP-62, < 0.0169 µM (active); in the assay on U-251, 0.0122 µM (active); in the assay with IGROV-1 it was 0.337 µM (active). For the same compound, the GI50 in the assay on SW-620 was 0.116 µM (active); in the assay on K562 it was 0.238 µM (active); with ACHN, 0.0337 µM (active); in the assay on Malme-3M, 0.123 µM (active); in the assay on CCRF-CEM, < 0.01 µM (active); in the assay with T47D it was 0.105 µM (active). Besides, the GI50 in the assay with SN12C is 0.0182 µM (active); in the assay on PC-3 it was 0.16 µM (active).

For `CS(=O)(=O)OCCN(CCOS(C)(=O)=O)c1ccc(/C=N/c2ccc(-c3csc(COc4ccccc4)n3)cc2)cc1`, the GI50 in the assay with LOX IMVI was 4.27 µM (inactive); in the assay on A498 it was 2.6 µM (inactive); with SK-MEL-5 it was 10.7 µM (inactive); in the assay on RPMI-8226 it was 4.47 µM (inactive); with SF-268, 2.49 µM (inactive); in the assay with NCI-H226 it was 2.66 µM (inactive). Moreover, the GI50 in the assay on NCI-H522 is 0.295 µM (active); in the assay with MCF7, 5.42 µM (inactive); in the assay with RXF 393, 0.461 µM (active); in the assay with HOP-62, 1.32 µM (inactive); with U-251, 7.24 µM (inactive); with IGROV-1, 12.6 µM (inactive). Further, the GI50 in the assay on SW-620 is 8.09 µM (inactive); with K562 it was 5.02 µM (inactive); with ACHN, 0.407 µM (active); in the assay on Malme-3M, 12.8 µM (inactive); in the assay on CCRF-CEM, 0.587 µM (active); with T47D, 1.32 µM (inactive). In addition, the GI50 is 5.14 µM (inactive) in the assay on SN12C and 7.06 µM (inactive) with PC-3.

For the compound `O=[N+]([O-])c1cccc2nccc(NCCCO)c12`, the GI50 is 12.9 µM (inactive) in the assay with LOX IMVI; 10.4 µM (inactive) in the assay with A498; 3.9 µM (inactive) in the assay with SK-MEL-5; 13.6 µM (inactive) in the assay with RPMI-8226; 11.6 µM (inactive) in the assay on SF-268; 23 µM (inactive) in the assay with NCI-H226. Also, the GI50 in the assay on NCI-H522 is 6 µM (inactive); with MCF7 it was 12.7 µM (inactive); in the assay on RXF 393, 6.17 µM (inactive); with HOP-62, 17.5 µM (inactive); in the assay on U-251, 14.1 µM (inactive); in the assay on IGROV-1 it was 13.3 µM (inactive). The GI50 in the assay with SW-620 was 13.3 µM (inactive); in the assay with K562 it was 13.2 µM (inactive); in the assay on ACHN, 14.3 µM (inactive); in the assay on Malme-3M it was 10.2 µM (inactive); with CCRF-CEM it was 14.7 µM (inactive); with T47D it was 26.4 µM (inactive). Further, the GI50 is 14.8 µM (inactive) in the assay with SN12C and 20.7 µM (inactive) in the assay with PC-3.

`c1cc(Sc2nc(Sc3ccncc3)nc(Sc3ccncc3)n2)ccn1`: the GI50 in the assay on LOX IMVI, in the assay with A498, with SK-MEL-5, in the assay with RPMI-8226, in the assay on SF-268 and in the assay on NCI-H226 was > 100 µM (inactive) throughout. Further, the GI50 with NCI-H522, in the assay on MCF7, in the assay on RXF 393, in the assay with HOP-62, with U-251 and with IGROV-1 was > 100 µM (inactive) each time. Besides, the GI50 in the assay with SW-620, with K562, in the assay on ACHN, in the assay with Malme-3M, with CCRF-CEM and in the assay with T47D was > 100 µM (inactive) in each case. The GI50 in the assay with SN12C and in the assay with PC-3 was > 100 µM (inactive) in each case.

Turning to `CN1CCN([C@H]2C[C@H]3[C@@H]4CC=C5C[C@@H](O)CC[C@]5(C)[C@H]4CC[C@]3(C)[C@H]2O)CC1`, the GI50 in the assay with LOX IMVI was > 43.4 µM (inactive); in the assay with A498 it was > 100 µM (inactive); with SK-MEL-5, 35.5 µM (inactive); in the assay on RPMI-8226 it was 23.9 µM (inactive); in the assay with SF-268 it was > 41.7 µM (inactive); in the assay with NCI-H226, > 100 µM (inactive). In addition, the GI50 with NCI-H522 was > 100 µM (inactive); in the assay with MCF7, > 45.6 µM (inactive); in the assay with RXF 393, 16.9 µM (inactive); in the assay on HOP-62, > 51.9 µM (inactive); with U-251, 17.1 µM (inactive); with IGROV-1, > 90.8 µM (inactive). For the same compound, the GI50 was 20.7 µM (inactive) in the assay on SW-620; 19 µM (inactive) with K562; > 100 µM (inactive) with ACHN; > 43.2 µM (inactive) with Malme-3M; 25 µM (inactive) in the assay with CCRF-CEM; > 47.4 µM (inactive) in the assay on T47D. The values for the GI50 with SN12C and in the assay on PC-3 were > 100 µM (inactive) and > 51.2 µM (inactive), respectively.

As to `COc1cc([C@@H]2c3cc4c(cc3[C@H](OC3OC5COC(C(C)C)OC5C(O)C3O)C3COC(=O)[C@@H]32)OCO4)cc(OC)c1OC` (some centres not stated), the GI50 was 3.01 µM (inactive) in the assay on LOX IMVI; 2.89 µM (inactive) with A498; 5.55 µM (inactive) in the assay with SK-MEL-5; 5.71 µM (inactive) in the assay with RPMI-8226; 5.81 µM (inactive) with SF-268; 2.96 µM (inactive) in the assay on NCI-H226. The GI50 is 3.24 µM (inactive) with NCI-H522; 3.38 µM (inactive) in the assay with MCF7; 2.3 µM (inactive) in the assay with RXF 393; 7.24 µM (inactive) in the assay on HOP-62; 3.93 µM (inactive) in the assay on U-251; 4.17 µM (inactive) in the assay with IGROV-1. In addition, the GI50 is 4.48 µM (inactive) in the assay with SW-620; 3.19 µM (inactive) in the assay on K562; 4.79 µM (inactive) in the assay on ACHN; 4.57 µM (inactive) in the assay on Malme-3M; 3.49 µM (inactive) with CCRF-CEM; 12.7 µM (inactive) in the assay on T47D. Moreover, the GI50 with SN12C is 19.5 µM (inactive); in the assay on PC-3 it was 4.89 µM (inactive).

With `CC[C@]1(Cc2ccc(OC)c(OC)c2)C=[N+]([O-])O[C@H](OCc2ccccc2)[C@@H]1OC(C)=O`, the GI50 with LOX IMVI was 17.5 µM (inactive); with A498 it was 32.7 µM (inactive); in the assay with SK-MEL-5 it was 27.9 µM (inactive); in the assay with RPMI-8226 it was 18.2 µM (inactive); with SF-268, 23.7 µM (inactive); in the assay with NCI-H226, 19.3 µM (inactive). Further, the GI50 in the assay with NCI-H522 is 12.4 µM (inactive); in the assay with MCF7, 29.7 µM (inactive); in the assay with RXF 393, 18.2 µM (inactive); with HOP-62 it was 34.2 µM (inactive); in the assay with U-251 it was 32.3 µM (inactive); in the assay with IGROV-1, 25.1 µM (inactive). Besides, the GI50 in the assay on SW-620 was 32.8 µM (inactive); with K562 it was 20.9 µM (inactive); in the assay on ACHN, 27.6 µM (inactive); in the assay on Malme-3M, 20.7 µM (inactive); in the assay on CCRF-CEM, 19.6 µM (inactive); in the assay on T47D, 20 µM (inactive). The GI50 in the assay with PC-3 is 20.5 µM (inactive).

With `CCOC(=O)C1=C(c2ccccc2)C12N(Cc1ccccc1)C(=O)C2(c1ccccc1)c1ccccc1` (configuration not stated), the GI50 was 34.9 µM (inactive) with LOX IMVI; 36.8 µM (inactive) in the assay with A498; 3.16 µM (inactive) in the assay with RPMI-8226; > 100 µM (inactive) in the assay on SF-268; 26.3 µM (inactive) with NCI-H226; 32.8 µM (inactive) in the assay with NCI-H522. For the same compound, the GI50 in the assay with MCF7 is 38.6 µM (inactive); with RXF 393, 28.3 µM (inactive); in the assay with HOP-62, 67 µM (inactive); with U-251 it was 37.8 µM (inactive); in the assay with IGROV-1, 56.1 µM (inactive); in the assay on SW-620 it was 42.2 µM (inactive). For the same compound, the GI50 is 16.5 µM (inactive) with K562; 37.7 µM (inactive) with ACHN; 93.8 µM (inactive) in the assay on Malme-3M; 25.8 µM (inactive) in the assay on CCRF-CEM; 43.2 µM (inactive) in the assay with T47D; 57.8 µM (inactive) in the assay with SN12C. Moreover, the GI50 in the assay on PC-3 is 21.3 µM (inactive).

Turning to `CC1=CC(=O)N(n2c(C)n[nH]c2=O)C1=O`, the GI50 in the assay on LOX IMVI, with A498, with SK-MEL-5, with RPMI-8226, in the assay with SF-268 and in the assay with NCI-H226 was > 100 µM (inactive) each time. The GI50 with NCI-H522, in the assay with MCF7, in the assay on RXF 393, in the assay on U-251, in the assay with IGROV-1 and in the assay on SW-620 was > 100 µM (inactive) each time. In addition, the GI50 with K562, with ACHN, with Malme-3M, in the assay with CCRF-CEM, in the assay with T47D and in the assay on SN12C was > 100 µM (inactive) each time. In addition, the GI50 in the assay with PC-3 was > 100 µM (inactive).

The values above are taken from ChEMBL document CHEMBL1201862, “PubChem BioAssay data set” (2004).
